Residues, ends and D or L forms follow the SMILES beside them. *: point of attachment. FITC = O=C1OC2(c3ccc(O)cc3Oc3cc(O)ccc32)c2ccc(NC(=S)*)cc21
Experiments:
TC32 cells = assay: Monolayer cell growth (MTT or WST), TC32; type: cell-based; conditions: TC32 monolayer, 10 μM
Description: (§1) In FIG. 13A, recombinant EWS-FLI1 was treated with NSC635437 for 30 minutes. GST-RHA (630-1020) was added and the complexes were then precipitated with antibody to EWS-FLI1 and Protein G beads. Resolved complexes showing the immunoprecipitated complex control without compound are in lanes 3 (0.1% DMSO) and 5 (0.01% DMSO). […] ESFT TC32 (◯) and neuroblastoma SK-N-AS (▪) were grown for 72 hours in the continuous presence of NSC635437. Cells were incubated in MTT reagent for 4 hours and the dried precipitate was dissolved isopropanol and the absorbance read at 570 nm. Each cell line was standardized to the growth of the DMSO control.
(§2) FIG. 30 provides data to show E9R peptide prevents EWS-FLI1 binding to RHA with specific detrimental effects upon ESFT growth and transformation. […] Scale bar equals 20 μm. […] Only expression of EGFP-E9R in TC71 reduced anchorage independent growth. […] Scale bar equals 20 μm.
FIG. 33 provides data showing YK-4-279 is potent and specific inhibitor of ESFT. […] Cell number was measured by MTT or WST reduction after seven days in culture. […] FIG. 33D cell lines expressing EWS-FLI1 compared to non-EWS-FLI1 malignant cell lines following 3 days in culture to establish the IC50 using WST assay. […] Graph plots level of fluorescence in treated divided by untreated lysate. […] Scale bar equals 200 μm.

CBP (aa 1680-1890) = CBP (aa 1680-1890) (Homo sapiens, UniProt Q92793); assay: Competitive ELISA, RHA binding to CBP; conditions: RHA 4 nM, E9RP 0.01-30 μM
Description: (§3) E9RP is the peptide region of RHA (E9R; SEQ ID NO: 29) fused to the Penetratin peptide (from the Antennapedia homeodomain; SEQ ID NO: 34). In FIG. 5A, E9RP was used in a competition experiment for blocking binding of RHA to EWS-FLI1. Wells were coated with 500 ng EWS-FLI1. RHA (4 nM) was added on to wells in the presence of E9RP (0.01-30 μM). In FIG. 5B, wells were coated with 500 ng/well recombinant CBP. RHA (4 nM) was added to wells with E9RP (0.01-30 μM).
(§4) E9RP was evaluated for the ability to block RHA from binding to EWS-FLI1 using both competitive ELISA assay and solution immunoprecipitation assays. In addition, specificity of interaction was evaluated by disrupting EWS-FLI1 binding from RHA without interfering with other RHA binding proteins. Creb-binding protein (CBP, p300) is critical to cellular basal transcription, so it was determined if a peptide that would disrupt EWS-FLI1 binding from RHA could also disrupt CBP binding.

RHA binding to EWS-FLI1 [1] = assay: Competitive ELISA, RHA binding to EWS-FLI1; conditions: RHA 4 nM, E9RP 0.01-30 μM; read-out: IC50, prevention of RHA binding to EWS-FLI1
Description: as §3, §4

RHA binding to EWS-FLI1 [2] = assay: Solution immunoprecipitation of GST-RHA with recombinant EWS-FLI1; design: species or system human
Description: E9RP is the peptide region of RHA (E9R; SEQ ID NO: 29) fused to the Penetratin peptide (from the Antennapedia homeodomain; SEQ ID NO: 34). Immunoprecipitation of GST-RHA using recombinant EWS-FLI1 bound to a FLI1 antibody. […] E9RP is the sequence of aa 823-832 of human RHA that were synthesized.
as §1
Protein lysates and immunoprecipitations were performed as previously published (Uren et al (2005)). Recombinant GST-RHA (647-1075) was prepared from crude bacterial extracts without further purification.
Reagents were developed to block RHA binding to EWS-FLI1 since RHA is necessary for optimal EWS-FLI1 activity. The E9R peptide corresponds to amino acids 823 to 832, located in the proximal HA2 region of RHA (FIG. 29A). A cell-free protein interaction assay was developed to test whether E9R peptide inhibits RHA binding to EWS-FLI1. […] It was determined whether disrupted EWS-FLI1/RHA binding inhibited cell growth.

[3] = tested on: neuroblastoma SKNAS cells; assay: Monolayer cell growth, neuroblastoma; type: cell-based; conditions: E9RP 10 μM; seven days
Source text: (§5) FIGS. 8A-E show E9RP inhibits ESFT cell growth. In FIGS. 8A and 8B, E9RP is the peptide region of RHA (SEQ ID NO:29) fused to the Penetratin peptide (from the Antennapedia homeodomain; SEQ ID NO:34) and contains amino-terminal fluorescein (FITC). […] Neither lipids nor electricity were used for transduction of peptides into cells. Confocal microscopy identified peptide throughout cells with nuclear uptake. Nuclear uptake was confirmed by DAPI staining. […] Cell lines were placed in 96-well plates with either vehicle alone (●), or E9RP (10 μM) on days 0, 3 and 5 (▴). No lipid or other transfection method was utilized. This represents two experiments with similar results. FIG. 8D depicts dose response of ESFT 1 to either wild-type or single amino-acid mutant peptides. (▪) wild-type E9RP, (E9R (SEQ ID NO:29) fused to the Penetratin peptide (SEQ ID NO:34)), (▾)(E9RP (P2A peptide (SEQ ID NO:30) fused to the Penetratin peptide (SEQ ID NO:34)), (▴)E9RP (D5A peptide (SEQ ID NO:31) fused to the Penetratin peptide (SEQ ID NO:34)). Growth normalized to treating cells with the 16 aa Antp sequence alone (SEQ ID NO:34). FIG. 8E is a comparison of wild-type versus mutant peptides in ESFT and NB cells.
as §1, §2

[4] = tested on: two additional sarcoma cell lines, lacking EWS-FLI1; assay: Peptide growth inhibition, additional sarcoma cell lines; type: cell-based; conditions: data not shown
[5] = tested on: ESFT cell lines TC32 (ESFT 1) and 5838 (ESFT 2); assay: Peptide growth inhibition, ESFT cell lines 1 and 2; type: cell-based; conditions: 10 μM on days 0, 3 and 5; seven days
Source text: as §5

TC71 (ESFT) cells = assay: Soft-agar anchorage-independent growth, TC71 expressing E9R; type: cell-based
Source text: (§6) Plasmids that express E9R fused to enhanced green fluorescent protein (EGFP) were transfected into either Ewing's Sarcoma (TC71) or rhabdomyosarcoma (RP) cells and placed in soft-agar for anchorage-independent growth. The pGE9R plasmid diffusely expressed E9R while the pGCE9R plasmid contained a nuclear export sequence to prevent expressed peptide from entering the nucleus. The transfected cells were placed in soft agar culture for 2 weeks and stained with MTT. When E9R was diffusely expressed, including the nucleus, ESFT (containing EWS-FLI1) soft-agar colony growth was suppressed.
as §2
Since the Antp peptides added to media would not remain in the cells for 2 weeks during soft-agar colony growth, expression peptides were used to provide continuous exposure to peptide. A pair of expression plasmids with cloning sites downstream of the enhanced green fluorescent protein (EGFP) was obtained; the pG plasmid contained no localizing sequence and was expressed throughout the cells (FIG. 9, left panels). The pGC plasmids contained a nuclear export sequence that blocked peptide transport into the nucleus (FIG. 9, right panels). […]

[6] = tested on: SKNAS (neuroblastoma) cells; assay: Soft-agar anchorage-independent growth, SKNAS expressing E9R; type: cell-based; conditions: expressed E9R
Source text: as §2

ESFT cells TC71 = assay: Xenografts of TC71 cells transfected with E9R expression plasmids; type: in vivo, mice; conditions: pGE9R vs pGE9R-D5A, 26 days
Description: ESFT cells TC71 were transfected with pGE9R (wild-type sequence peptide (SEQ ID NO: 29)) or pGE9R-D5A (control, mutated peptide; D5A (SEQ ID NO: 31)). In FIG. 10A, fluorescent micrographs of transfected cells after 4 days in culture are presented. […] Bar equals 300 microns. In FIG. 10B, each group contains six mice. Mice legs were measured every 2-3 days. Tumors appeared in 2 weeks. The experiment was terminated after 26 days when the largest tumor caused the mouse to limp. Tumor volumes were calculated according to (D×d2/6)×π formula, where large diameter of tumor mass is D and small diameter is d. 2-way ANOVA analysis, followed by Bonferroni correction for multiple variables, the difference in the two growth curves was highly significant, p=0.016.
The ability of the E9R peptide sequence to prevent ESFT tumorigenesis in a pilot murine xenograft experiment was determined. As a control peptide, the same mutation that prevented wild-type RHA from binding to EWS-FLI1 (D827A, noted in the 10-mer peptide as E9R-D5A) was created. ESFT cells were transfected with either pGE9R or pGE9R-D5A by electroporation. A transfection efficiency of greater than 80% using fluorescent microscopy (FIG. 10A) was observed. […] Every two to three days, each animal's thigh was measured in three dimensions, and tumor volumes were calculated. […]

rhabdomyosarcoma cells = assay: Soft-agar anchorage-independent growth, rhabdomyosarcoma cells expressing E9R; type: cell-based; conditions: E9R expression
Source text: as §6
Since the Antp peptides added to media would not remain in the cells for 2 weeks during soft-agar colony growth, expression peptides were used to provide continuous exposure to peptide. A pair of expression plasmids with cloning sites downstream of the enhanced green fluorescent protein (EGFP) was obtained; the pG plasmid contained no localizing sequence and was expressed throughout the cells (FIG. 9, left panels). The pGC plasmids contained a nuclear export sequence that blocked peptide transport into the nucleus (FIG. 9, right panels). The E9R DNA sequence was synthesized and the hybridized oligodeoxynucleotides were inserted into the cloning site downstream of either EGFP or EGFP and nuclear export sequence.

EWS-FLI1 = assay: SPR displacement assay of E9R from EWS-FLI1; type: binding
Source text: FIG. 31 provides data showing a small molecule binding to EWS-FLI1 and displaces E9R from EWS-FLI1. […] Aromatic functionalization produced YK-4-279 a para-methoxy derivative of NSC635437. […] A FLI1 antibody complexed EWS-FLI1 and precipitated it from the solution.
An aromatic optimization strategy was used to design analogs to improve upon the activity of NSC635437.

Sequence of CBP (aa 1680-1890) (Q92793 1680-1890): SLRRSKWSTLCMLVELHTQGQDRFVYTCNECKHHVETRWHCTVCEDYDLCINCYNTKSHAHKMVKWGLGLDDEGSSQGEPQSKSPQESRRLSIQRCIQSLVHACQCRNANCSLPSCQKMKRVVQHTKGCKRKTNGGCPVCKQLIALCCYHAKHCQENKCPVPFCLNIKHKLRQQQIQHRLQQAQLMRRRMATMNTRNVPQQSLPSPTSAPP

For CC[C@H](C)[C@H](NC(=O)[C@H](CCCCN)NC(=O)[C@@H](NC(=O)[C@H](CCC(N)=O)NC(=O)[C@H](CCCNC(=N)N)NC(=S)Nc1ccc2c(c1)C(=O)OC21c2ccc(O)cc2Oc2cc(O)ccc21)[C@@H](C)CC)C(=O)N[C@@H](Cc1c[nH]c2ccccc12)C(=O)N[C@@H](Cc1ccccc1)C(=O)N[C@@H](CCC(N)=O)C(=O)N[C@@H](CC(N)=O)C(=O)N[C@@H](CCCNC(=N)N)C(=O)N[C@@H](CCCNC(=N)N)C(=O)N[C@@H](CCSC)C(=O)N[C@@H](CCCCN)C(=O)N[C@@H](Cc1c[nH]c2ccccc12)C(=O)N[C@@H](CCCCN)C(=O)N[C@@H](CCCCN)C(=O)N1CCC[C@H]1C(=O)N1CCC[C@H]1C(=O)N1CCC[C@H]1C(=O)N[C@@H](CC(C)C)C(=O)N[C@@H](CC(=O)O)C(=O)N[C@@H](C)C(=O)N[C@H](C(=O)N[C@H](C(=O)N[C@@H](CCC(=O)O)C(=O)N[C@@H](C)C(=O)O)[C@@H](C)CC)C(C)C [E9RP] ({FITC}-RQIKIWFQNRRMKWKKPPPLDAVIEA-OH; C-terminus assumed), the “ESFT cell growth with fluorescein conjugated peptides” value (TC32 cells) was “significantly reduced ESFT cell growth”, the “effect upon the binding of CBP” value (CBP (aa 1680-1890)) was “lacking a dose-dependent effect” and the IC50 (RHA binding to EWS-FLI1 [1]) was about 200 nM. The IC50 (RHA binding to EWS-FLI1 [2]; GST-RHA (630-1020), read-out: IC50 to prevent complex formation) was about 100 nM, the cell growth [3] was “did not affect the growth” and the cell growth [4] was “not growth inhibited”. For the same molecule, the cell growth [5] was “inhibited the growth”.
“PPPLDAVIEA [E9R, peptide corresponding to aa 823-832 of human RHA]” was tested, and the “reduction of TC71 colony formation” value (TC71 (ESFT) cells; E9R expressed as EGFP fusion throughout the cell) was 95%, the “soft agar colony growth” value (TC71 (ESFT) cells; E9R expressed throughout cells (pGE9R)) was “suppressed” and the anchorage-independent growth [6] was “not affected”. For the same molecule, the “xenograft growth of cells expressing peptide” value (ESFT cells TC71) was “reduces ESFT xenografts growth”, the “soft agar colony growth” value (rhabdomyosarcoma cells) was “not reduced” and the “concentration giving decreased association to 50%” value (RHA binding to EWS-FLI1 [2]; GST-RHA (647-1075) and full-length EWS-FLI1) was 0.1 µM. The “binding of E9R to EWS-FLI1” value (EWS-FLI1; 32 μM E9R alone) was 13 R.U and the “binding of E9R to EWS-FLI1” value (EWS-FLI1; 64 μM E9R alone) was 17 R.U.

— US9045415B2, “Targeting of EWS-FLI1 as anti-tumor therapy” (Georgetown University, priority 2006, dated 2015)
